{
  "source": "patent US20040082635A1",
  "about": "“Fused cyclic compounds and medicinal use thereof” (priority 2001, published 2004)",
  "note": "Structures can show the parent of a compound that is named as a salt.",
  "data": [
    {"target": "T1, HCV polymerase (Hepatitis C virus genotype 1b, UniProt P26663)", "T1 construct": "a region encoding NS5B (591 amino acids; J Virol 1991 Mar, 65(3), 1105-13) was amplified by PCR; 6 His (N); made in house; host or cells: Escherichia coli", "T1 sequence (P26663 2420-3010)": "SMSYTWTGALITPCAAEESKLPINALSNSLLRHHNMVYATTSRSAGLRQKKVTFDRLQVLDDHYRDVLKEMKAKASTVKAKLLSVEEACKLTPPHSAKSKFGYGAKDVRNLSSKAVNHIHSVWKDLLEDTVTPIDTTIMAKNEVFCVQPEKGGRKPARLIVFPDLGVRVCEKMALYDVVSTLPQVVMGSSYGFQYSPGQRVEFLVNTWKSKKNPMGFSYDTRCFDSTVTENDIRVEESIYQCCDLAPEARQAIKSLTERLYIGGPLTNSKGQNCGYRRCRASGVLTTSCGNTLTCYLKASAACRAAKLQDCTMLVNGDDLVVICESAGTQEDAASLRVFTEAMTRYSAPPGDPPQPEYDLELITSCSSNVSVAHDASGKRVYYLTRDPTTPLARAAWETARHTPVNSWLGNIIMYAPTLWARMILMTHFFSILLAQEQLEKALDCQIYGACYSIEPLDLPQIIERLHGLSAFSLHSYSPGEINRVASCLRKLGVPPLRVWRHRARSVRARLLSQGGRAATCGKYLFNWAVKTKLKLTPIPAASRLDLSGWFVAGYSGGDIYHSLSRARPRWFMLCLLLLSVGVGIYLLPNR", "experiment": "biochemical", "settings": "read-out: HCV polymerase inhibitory activity IC50", "units": {"IC50": "nM"}, "values": [
      {"smiles": "O=C(O)c1ccc2c(c1)nc(-c1ccc(OCc3ccccc3)nc1)n2C1CCCCC1", "note": "[Example 100, 2-(2-benzyloxy-5-pyridyl)-1-cyclohexylbenzimidazole-5-carboxylic acid]", "IC50": 780},
      {"smiles": "O=C(O)c1ccc2c(c1)nc(-c1ccc(OCc3cc(C(=O)NCC4CCCCC4)ccc3-c3ccc(Cl)cc3)cc1)n2C1CCCCC1", "note": "[Example 317, 2-{4-[2-(4-chlorophenyl)-5-(cyclohexylmethylcarbamoyl)-benzyloxy]phenyl}-1-cyclohexylbenzimidazole-5-carboxylic acid hydrochloride]", "IC50": 32},
      {"smiles": "O=C(O)c1ccc2c(c1)nc(-c1ccc(Oc3cccc(OCc4cccc(Cl)c4)c3)cc1)n2C1CCCCC1", "note": "[Example 200, 2-{4-[3-(3-chlorobenzyloxy)phenoxy]phenyl}-1-cyclohexylbenzimidazole-5-carboxylic acid]", "IC50": 100},
      {"smiles": "CN(C)C(=O)c1ccc(-c2ccc(S(C)(=O)=O)cc2)c(COc2ccc(-c3nc4cc(C(=O)O)ccc4n3C3CCCCC3)cc2)c1", "note": "[Example 271, 2-{4-[3-dimethylcarbamoyl-6-(4-methanesulfonylphenyl)benzyloxy]-phenyl}-1-cyclohexylbenzimidazole-5-carboxylic acid hydrochloride]", "IC50": 24},
      {"smiles": "CN(C)S(=O)(=O)c1ccc(-c2ccc(Cl)cc2)c(COc2ccc(-c3nc4cc(C(=O)O)ccc4n3C3CCCCC3)cc2)c1", "note": "[Example 279, 2-{4-[2-(4-chlorophenyl)-5-dimethylsulfamoylbenzyloxy]phenyl}-1-cyclohexylbenzimidazole-5-carboxylic acid hydrochloride]", "IC50": 17},
      {"smiles": "CN(C)C(=O)c1cc(COc2ccc(-c3nc4cc(C(=O)O)ccc4n3C3CCCCC3)c(F)c2)c(-c2ccc(F)cc2)s1", "note": "[Example 431, 2-{4-[{2-(4-fluorophenyl)-5-(dimethylcarbamoyl)thiophen-3-yl}methoxy]-2-fluorophenyl}-1-cyclohexylbenzimidazole-5-carboxylic acid hydrochloride]", "IC50": 15},
      {"smiles": "O=C(O)c1ccc2c(c1)nc(-c1ccc(OCc3ccccc3-c3ccc(C(F)(F)F)cc3)cc1)n2C1CCCCC1", "note": "[Example 117, 1-cyclohexyl-2-{4-[2-(4-trifluoromethylphenyl)benzyloxy]-phenyl}benzimidazole-5-carboxylic acid]", "IC50": 75},
      {"smiles": "O=C(O)c1ccc2c(c1)nc(-c1ccc(OCc3cc(C(=O)NC4CCC4)ccc3-c3ccc(Cl)cc3)cc1F)n2C1CCCCC1", "note": "[Example 378, 2-{4-[2-(4-chlorophenyl)-5-(cyclobutylcarbamoyl)benzyloxy]-2-fluorophenyl}-1-cyclohexylbenzimidazole-5-carboxylic acid hydrochloride]", "IC50": 18},
      {"smiles": "O=C(O)c1ccc(-c2ccc(Cl)cc2)c(COc2ccc(-c3nc4cc(C(=O)O)ccc4n3C3CCCCC3)c(F)c2)c1", "note": "[Example 305, 2-{4-[5-carboxy-2-(4-chlorophenyl)benzyloxy]-2-fluorophenyl}-1-cyclohexylbenzimidazole-5-carboxylic acid]", "IC50": 10},
      {"smiles": "COc1ccc(Br)c(COc2ccc(-c3nc4cc(C(=O)O)ccc4n3C3CCCCC3)cc2)c1", "note": "[Example 180, 2-[4-(2-bromo-5-methoxybenzyloxy)phenyl]-1-cyclohexylbenzimidazole-5-carboxylic acid]", "IC50": 110},
      {"smiles": "Nc1ccc(-c2ccc(Cl)cc2)c(COc2ccc(-c3nc4cc(C(=O)O)ccc4n3C3CCCCC3)cc2)c1", "note": "[Example 308, 2-{4-[5-amino-2-(4-chlorophenyl)benzyloxy]phenyl}-1-cyclohexylbenzimidazole-5-carboxylic acid]", "IC50": 23},
      {"smiles": "O=C(O)c1ccc2c(c1)nc(-c1ccc(Oc3cccc(-c4ccc(Cl)cc4)c3)cc1)n2C1CCCCC1", "note": "[Example 215, 2-{4-[3-(4-chlorophenyl)phenoxy]phenyl}-1-cyclohexylbenzimidazole-5-carboxylic acid]", "IC50": 78},
      {"smiles": "O=C(O)c1ccc2c(c1)nc(-c1ccc(OCc3cc(S(=O)(=O)N4CCC(O)CC4)ccc3-c3ccc(Cl)cc3)cc1)n2C1CCCCC1", "note": "[Example 359, 2-{4-[2-(4-chlorophenyl)-5-(4-hydroxypiperidin-1-ylsulfonyl)benzyloxy]phenyl}-1-cyclohexylbenzimidazole-5-carboxylic acid hydrochloride]", "IC50": 15},
      {"smiles": "CC(C)(C)c1ccc(-c2ccc(Cl)cc2COc2ccc(-c3nc4cc(C(=O)O)ccc4n3C3CCCCC3)cc2)cc1", "note": "[Example 145, 2-{4-[2-(4-tert-butylphenyl)-5-chlorobenzyloxy]phenyl}-1-cyclohexylbenzimidazole-5-carboxylic acid]", "IC50": 88},
      {"smiles": "CCS(=O)(=O)N(C)c1ccc(-c2ccc(Cl)cc2)c(COc2ccc(-c3nc4cc(C(=O)O)ccc4n3C3CCCCC3)c(F)c2)c1", "note": "[Example 464, 2-[4-{2-(4-chlorophenyl)-5-[N-(ethylsulfonyl)-N-methylamino]-benzyloxy}-2-fluorophenyl]-1-cyclohexylbenzimidazole-5-carboxylic acid hydrochloride]", "IC50": 30},
      {"smiles": "CC(C)NC(=O)c1ccc(-c2ccc(Cl)cc2)c(COc2ccc(-c3nc4cc(C(=O)O)ccc4n3N3CCCCC3)c(F)c2)c1", "note": "[Example 420, 2-{4-[2-(4-chlorophenyl)-5-(isopropylcarbamoyl)benzyloxy]-2-fluorophenyl}-1-piperidinobenzimidazole-5-carboxylic acid hydrochloride]", "IC50": 15},
      {"smiles": "CN(C)C(=O)c1ccc(N2CCC[C@H]2COc2ccc(-c3nc4cc(C(=O)O)ccc4n3C3CCCCC3)cc2)cc1", "note": "[Example 228, 2-{4-[{(2S)-1-(4-dimethylcarbamoylphenyl)-2-pyrrolidinyl}-methoxy]phenyl}-1-cyclohexylbenzimidazole-5-carboxylic acid]", "IC50": 180},
      {"smiles": "O=C(O)CNC(=O)c1ccc(-c2ccc(Cl)cc2)c(COc2ccc(-c3nc4cc(C(=O)O)ccc4n3C3CCCCC3)c(F)c2)c1", "note": "[Example 292, 2-{4-[3-(carboxymethylcarbamoyl)-6-(4-chlorophenyl)benzyloxy]-2-fluorophenyl}-1-cyclohexylbenzimidazole-5-carboxylic acid]", "IC50": 15},
      {"smiles": "CONC(=O)c1ccc(-c2ccc(Cl)cc2)c(COc2ccc(-c3nc4cc(C(=O)O)ccc4n3C3CCCCC3)c(F)c2)c1", "note": "[Example 382, 2-{4-[2-(4-chlorophenyl)-5-(methoxycarbamoyl)benzyloxy]-2-fluorophenyl}-1-cyclohexylbenzimidazole-5-carboxylic acid hydrochloride]", "IC50": 15},
      {"smiles": "CNc1nc(Oc2ccc(-c3nc4cc(C(=O)O)ccc4n3C3CCCCC3)cc2)nc(-c2cccc(Cl)c2)n1", "note": "[Example 236, 2-{4-[2-(3-chlorophenyl)-4-methylamino-1,3,5-triazin-6-yloxy]phenyl}-1-cyclohexylbenzimidazole-5-carboxylic acid trifluoroacetate]", "IC50": 75},
      {"smiles": "O=C(O)c1ccc2c(c1)nc(-c1ccc(OC(c3ccc(F)cc3)c3ccc(F)cc3)cc1)n2C1CCCCC1", "note": "[Example 134, 2-{4-[bis(4-fluorophenyl)methoxy]phenyl}-1-cyclohexylbenzimidazole-5-carboxylic acid]", "IC50": 71},
      {"smiles": "CS(=O)(=O)c1ccc(-c2ccc(Cl)cc2)c(COc2ccc(-c3nc4cc(C(=O)O)ccc4n3C3CCCCC3)cc2)c1", "note": "[Example 280, 2-{4-[2-(4-chlorophenyl)-5-methanesulfonylbenzyloxy]phenyl}-1-cyclohexylbenzimidazole-5-carboxylic acid]", "IC50": 16},
      {"smiles": "O=C(O)c1ccc2c(c1)nc(-c1ccc(OCc3cc(C(=O)N4CC[C@H](O)[C@H](O)C4)ccc3-c3ccc(Cl)cc3)cc1)n2C1CCCCC1", "note": "(stereo in doubt) [Example 348, 2-{4-[2-(4-chlorophenyl)-5-(3,4-dihydroxypiperidin-1-ylcarbonyl)benzyloxy]phenyl}-1-cyclohexylbenzimidazole-5-carboxylic acid hydrochloride]", "IC50": 13},
      {"smiles": "CCCCNC(=O)c1ccc(-c2ccc(Cl)cc2)c(COc2ccc(-c3nc4cc(C(=O)O)ccc4n3C3CCCCC3)c(F)c2)c1", "note": "[Example 388, 2-{4-[5-(butylcarbamoyl)-2-(4-chlorophenyl)benzyloxy]-2-fluorophenyl}-1-cyclohexylbenzimidazole-5-carboxylic acid hydrochloride]", "IC50": 20},
      {"smiles": "O=C(O)c1ccc2c(c1)nc(-c1ccc(OCc3ccc(C(=O)N4CCCCC4)cc3-c3ccc(Cl)cc3)cc1)n2C1CCCCC1", "note": "[Example 351, 2-{4-[2-(4-chlorophenyl)-4-(piperidinocarbonyl)benzyloxy]phenyl}-1-cyclohexylbenzimidazole-5-carboxylic acid hydrochloride]", "IC50": 19},
      {"smiles": "O=C(O)c1ccc2c(c1)nc(-c1ccc(OCc3cc(OCCN4CCC(O)CC4)ccc3-c3ccc(Cl)cc3)cc1)n2C1CCCCC1", "note": "[Example 370, 2-{4-[2-(4-chlorophenyl)-5-{2-(4-hydroxypiperidin-1-yl)ethoxy}benzyloxy]phenyl}-1-cyclohexylbenzimidazole-5-carboxylic acid hydrochloride]", "IC50": 17},
      {"smiles": "O=C(O)c1ccc2c(c1)nc(-c1ccc(OCc3cc(C(=O)N4CCCC4)ccc3-c3ccc(Cl)cc3)cc1)n2C1CCSCC1", "note": "[Example 417, 2-{4-[2-(4-chlorophenyl)-5-(pyrrolidin-1-ylcarbonyl)benzyloxy]phenyl}-1-(tetrahydrothiopyran-4-yl)benzimidazole-5-carboxylic acid hydrochloride]", "IC50": 29},
      {"smiles": "CC(C)NC(=O)c1ccc(-c2ccc(Cl)cc2)c(COc2ccc(-c3nc4cc(C(=O)O)ccc4n3C3CCSCC3)cc2)c1", "note": "[Example 416, 2-{4-[2-(4-chlorophenyl)-5-(isopropylcarbamoyl)benzyloxy]phenyl}-1-(tetrahydrothiopyran-4-yl)benzimidazole-5-carboxylic acid hydrochloride]", "IC50": 24},
      {"smiles": "O=C(O)c1ccc2c(c1)nc(-c1ccc(OCc3cc(C(=O)N4CCCC4)ccc3-c3ccc(Cl)cc3)cc1F)n2N1CCCCC1", "note": "[Example 421, 2-{4-[2-(4-chlorophenyl)-5-(pyrrolidin-1-ylcarbonyl)benzyloxy]-2-fluorophenyl}-1-piperidinobenzimidazole-5-carboxylic acid]", "IC50": 17}
    ]}
  ]
}
